Results taken from patent publication US5747545A, “Method of preventing NMDA receptor complex-mediated Neuronal damage” (priority 1995, dated 1998).
Entries after “also recorded” stand apart in the source; their conditions may differ.

Legend:
[1] = test system: NMDA receptor (cortical neurons); assay: Patch-clamp recording of NMDA-evoked current in cortical neurons; assay type: cell-based, rat (Sprague-Dawley)
[2] = test system: cortical neurons (NMDA receptor-mediated neurotoxicity); assay: Neurotoxicity assay: survival of cortical neurons after DTT and NMDA exposure; assay type: cell-based, rat; conditions: NTG 100 μM (30 μM NMDA, 30 min); SNP 400 μM (75 μM NMDA, 5 min); FIGS. 6A and 6B
Method: To test compounds for their ability to prevent neurotoxicity, neuronal cell death may be assayed as follows. […] The candidate compound is tested by addition (e.g., in a series of concentrations ranging from 0.1 nM-10 mM) after DTT treatment but before NMDA treatment. The candidate compound can be added for minutes, hours, or even days prior to its washout period. […] Neuronal cultures are scored for cell survival after this overnight incubation because NMDA toxicity is often delayed by several hours following NMDA exposure.
Using the neurotoxicity assay described above, the compounds sodium nitroprusside and nitroglycerin were tested individually for their ability to increase survival of neonatal cortical neurons.
As shown in FIG. 6A-6D, surviving neurons are expressed as the percentage of viable neurons in the control culture dishes in the same experiment. The concentrations of drugs were as follows: APV (2 mM), NTG (100 μM), SNP (400 μM), DTT (0.5-2 mM), and reduced Hb (500 μM). […] Values are mean ±SEM for experiments run in triplicate on sibling cultures on separate days (total of 32 experiments). Astericks indicate significant difference compared with the value for DTT-NMDA exposure, P<0.05 (ANOVA followed by Scheffe multiple comparison of means.

[3] = test system: cerebral cortical infarct (rat pups); assay: Bilateral carotid ligation plus hypoxia stroke model in rat pups pretreated with NTG patches; assay type: in vivo
Method: Rat pups were treated with nitroglycerin (NTG) approximately for 36-48 hours before performing bilateral carotid ligations. The dosing regimen for the 3 groups of rat pups used to generate the data was as follows.
Hair was removed from the abdominal region of the rat pup using a razor. One-quarter of a NTG patch (Minitran) was applied to the shaved area. A quarter patch of this size corresponds to a dose of 0.6 mg/24 hours (whole patch 2.4 mg/24 hr). Between 12 and 16 hours later, another quarter-patch was applied to the rat's abdomen, leaving the first on. This procedure was again repeated 12-16 hours later. Each rat pup received 3 or 4 quarter patches before surgery, which was performed two days later and consisted of bilateral carotid ligation followed by hypoxia to induce a stroke.
Using this procedure of inducing NTG systemic tolerance, the following results were obtained: In the control group, 7/11 (64%) of the animals suffered large ([…]) cerebral cortical infarcts. In contrast, in the NTG-treated group, only 2/13 (15%) of the animals had any discernible cerebral infarct at all (P<0.03 by Fisher's exact test).
Animals are operated on (to induce a stroke) approximately 48 hr after the initial administration of NTG patches.

[4] = intravenous NTG, human; cited from earlier work
[5] = Development of tolerance to systemic effects of NTG in humans; assay type: in vivo, human
Excerpt: Therefore, it is advantageous to induce NTG tolerance by gradually increasing dosage, thus increasing the neuronal protective effect.
To illustrate the development of systemic tolerance, a human patient could be made tolerant by intravenous administration of NTG within 18-24 hr of continuous infusion (see for example, J. E. Shaffer, B. -A. Han, W. H. Chern, and F. W. Lee, J. Pharmacol. Exper. Therap., 1992;260:286-293; D. C. May, J. J. Popma, Wh. H. Black, S. Scahaffer, H. R. Lee, B. D. Levine, and L. D. Hillis, New Engl. J. Med. 1987;317:805-809; C. M. Newman, J. B. Warren, G. W. Taylor, A. R. Boobis, and D. S. Davis, Br. J. Pharmacol. 1990;99:825-829). Oral, nasal spray, or sublingual NTG could also be used to induce systemic tolerance.
Another, perhaps easier, method for making humans tolerant within 24 hours to the systemic effects of NTG is to administer nitroglycerin as nitropaste or as a transdermal patch for transdermal delivery, for instance, as follows: 1/2inch every 4 to 6 hours, while monitoring the blood pressure (to see when hypotension subsides from the applied nitropaste). As tolerated (e.g., in the absence of sudden drops in blood pressure), the dose of nitropaste is increased to up to 3 inches with each administration. Under these conditions, tolerance (as evidenced by no effect on systemic blood pressure) will develop in 18-24 hours or less. […]

## O=[N+]([O-])OCC(CO[N+](=O)[O-])O[N+](=O)[O-] [NTG, 1,2,3-propanetriol trinitrate]
[1]; 50 μM NMDA + 1 μM glycine, -60 mV, DTT 2 mM, NTG 500 μM, DTNB 500 μM, 2 min exposure, washout, FIG. 4
  Effect on NMDA-evoked current: attenuated; also recorded: inhibited the responses
[1]; after 1-5 mM NEM
  Effect on amplitude of NMDA evoked current following alkylation with NEM: neither NTG nor DTNB significantly affected the amplitude of NMDA evoked current
[2]
  Effect on neuronal injury engendered by NMDA after exposure to DTT: ameliorated neuronal injury
[3]; NTG patches approx. 36-48 h before bilateral carotid ligation, control 7/11 (64%) large infarcts, P<0.03 Fisher's exact test
  Animals with any discernible cerebral infarct (number/total): 2/13
[3]; NTG patches approx. 36-48 h before bilateral carotid ligation, control 64%, P<0.03
  Animals with any discernible cerebral infarct (percent): 15%
[3]; NTG transdermal patches, tolerance-inducing procedure
  Cerebral protection: cerebral protective
[4]
  Time to systemic tolerance, intravenous continuous infusion: 18 to 24 h
[5]; no effect on systemic blood pressure, nitropaste dose escalated up to 3 inches, "will develop in 18-24 hours or less"
  Time to systemic tolerance, nitropaste or transdermal patch: 18 to 24 h
[5]; systemic effects e.g. blood pressure drop, coronary artery dilation or headache
  Tolerance to undesired systemic effects: patients can be made tolerant to the undesired systemic effects of NTG
